# Read-outs that look alike come from different tables or passages of the source.
# What was measured:
# [1] = tested on: Thyroid hormones T3, rT3, and T4; experiment: Plasma thyroid hormone assessment; type: in vivo, Sprague Dawley rats; settings: 5 days
# Method: Information on the chemicals used in the plasma thyroid hormone analysis can be found in Supplementary Text S2 and Table S3. Thyroid hormones T3, rT3, and T4 were extracted from 20 µL of plasma (5 days) following the procedure outlined by O’Shaughnessy et al.. Briefly, plasma was spiked with internal standards ^13C6-T3, ^13C6-rT3, and ^13C6-T4, and extracted using Evolute CX SPE plates (10 mg, 1 mL, Biotage, Charlotte, NC, USA). Extracts were eluted using a positive pressure manifold. Refer to Supplementary Text S2 for complete details of the extraction method.
# Targeted, quantitative analysis of the thyroid hormone levels was conducted using a 6500+ QTRAP liquid chromatography/mass spectrometer system (Sciex, Framingham, MA, USA) operated in positive ion multiple reaction monitoring (MRM) scan mode with electrospray ionization (ESI). […] Gradient elution was obtained using eluent A (0.1% formic acid; FA (aqueous)) and eluent B (MeOH with 0.1% FA). The gradient used is found in Table S4. Additional instrument parameters can be found in Table S5 and monitored transitions in Table S6. Statistical analysis is described in Supplementary Text S3. […]
# Support ing Text S1: Chemicals
# Chemicals used for solvent and mobile phases include methanol (MeOH), water (H2O), and acetonitrile (ACN) which were LC/MS grade and purchased from Honeywell Burdick & Jackson (Charlotte, NC, USA). Ethanol (EtOH) used as a solvent was ACS grade and purchased from Honeywell Burdick & Jackson. Ammonium formate (BioUltra purity) and ammonium acetate (99% pure) were used as mobile phase additives and obtained from Millipore Sigma (St. Louis, MO, USA). Formic acid (FA; 97.5% pure) was also used as an additive; it was purchased from Honeywell Fluka (Charlotte, NC, USA).
# Detailed information for chemicals used for each analysis may be found in Table S1.
# Support ing Text S2: Thyroid Hormone Chemicals and Analysis
# 3,3’,5-Triiodothyronine (Chemical Abstract Service Registry Number (CASRN) 6893-02-3 | U.S.
# Environmental Protection Agency (U.S. EPA) Distributed Structure-Searchable Toxicity (DSSTox) substance identifier (DTXSID) DTXSID8023216 | T3; ˃ 99% pure), mass-labeled 3,3’,5-triiodothyronine […]
# 98% pure), mass-labeled 3,3’,5’-triiodothyronine hydrochloride (13C6-rT3; ˃ 99% pure), L-thyroxine […]
# pure) were purchased from Cerilliant Corporation (Round Rock, Texas, USA).
# Briefly, a 20 µL aliquot of plasma from each sample was loaded into individual wells of a 96-well collection plate. They were spiked with 5 µL of a 40 ng/mL 13C6-T3, 13C6-rT3 and 13C6-T4 mixed solution followed by 1N hydrochloric acid (HCl) (20 µL) (36.5-38%, Fisher Scientific. Waltham, MA, USA), H2O (100 µL), and a 50:50 H2O/ACN solution (vol/vol) (60 µL) containing 0.1% formic acid (FA). Samples were vortexed, incubated at 37 °C for 2 hours, and brought to room temperature. They were diluted with an aqueous 0.1% acetic acid solution (LC/MS grade, Honeywell Fluka) and vortexed. The SPE well plates (Evolute CX, 96-well SPE plate, 10 mg, 1 mL, Biotage, Charlotte, NC, USA), processed with a positive pressure manifold, were conditioned with methanol followed by an aqueous 0.1% acetic acid solution prior to sample loading with low pressure. Plate wells were washed with 0.1% acetic acid followed by methanol. Thyroid hormones were eluted into a collection plate with 2.5% ammonium hydroxide (NH4OH) (28-30%, Thermo Fisher Scientific, Waltham, MA, USA) in methanol. Extracts were then evaporated to dryness with nitrogen using a Turbovap (Biotage) then reconstituted in 100 µL of 25:75 ACN/H2O (vol/vol) with 0.1% acetic acid. Extracts were stored in amber micro-sampling vials (Agilent Technologies, Santa Clara, CA, USA) prior to instrumental analysis.
# Samples were quantitated against matrix-matched calibration curves containing a minimum of 5 points spanning the range 0.005 – 25.00 ng/mL. Calibration standards were made by combining T3, rT3, and T4 analytes with the 13C6-T3, 13C6-rT3, and 13C6-T4 internal standards then with commercial rat […]
# [2] = design: method as in PMID 35436088; settings: male mice, cited from earlier work
structure (smiles),measurement,setting,value
"O=C(O)C(F)(OC(F)(F)C(F)(OC(F)(F)C(F)(OC(F)(F)C(F)(F)C(F)(F)F)C(F)(F)F)C(F)(F)F)C(F)(F)F (stereo not drawn) [HFPO-TeA, perfluoro-(2,5,8-trimethyl-3,6,9-trioxadodecanoic) acid]",rT3 Conc. in plasma,"[1]; 0.3 mg/kg/day, F, individual rats, LOQ 0.005 ng/mL",< LOQ
same,rT3 Conc. in plasma,"[1]; 0.3 mg/kg/day, M, individual rats, LOQ 0.005 ng/mL",< LOQ
same,rT3 Conc. in plasma,"[1]; 0.9 mg/kg/day, F, individual rats, LOQ 0.005 ng/mL",< LOQ
same,rT3 Conc. in plasma,"[1]; 0.9 mg/kg/day, F, mean ± SD of replicates above LOQ (0.005 ng/mL)",<LOQ
same,rT3 Conc. in plasma,"[1]; 0.9 mg/kg/day, M, individual rats, LOQ 0.005 ng/mL",< LOQ
same,rT3 Conc. in plasma,"[1]; 0.9 mg/kg/day, M, mean ± SD of replicates above LOQ (0.005 ng/mL)",< LOQ
same,rT3 Conc. in plasma,"[1]; 2.3 mg/kg/day, F, individual rats, LOQ 0.005 ng/mL",< LOQ
same,rT3 Conc. in plasma,"[1]; 2.3 mg/kg/day, M, individual rats, LOQ 0.005 ng/mL",< LOQ
same,rT3 Conc. in plasma,"[1]; 6.3 mg/kg/day, F, individual rats, LOQ 0.005 ng/mL",< LOQ
same,rT3 Conc. in plasma,"[1]; 6.3 mg/kg/day, M, individual rats, LOQ 0.005 ng/mL",< LOQ
same,rT3 Conc. in plasma,"[1]; 17 mg/kg/day, F, individual rats, LOQ 0.005 ng/mL",< LOQ
same,rT3 Conc. in plasma,"[1]; 17 mg/kg/day, M, individual rats, LOQ 0.005 ng/mL",< LOQ
same,experimental Kp,[2]; 0.02 mg/kg/day for 7 days,approximately 20
same,experimental Kp,[2]; 0.2 mg/kg/day for 7 days,~40
same,experimental Kp,[2]; 2 mg/kg/day for 7 days,~5
